From patent US8372869B2, “Process for the treatment of bacterial infections using 2-phenyl-1,2-benzisoselenazol-3(2H)-one 1-oxide” (priority 2008, dated 2013) come the findings set out here.

The structures appear in SMILES notation. Entries after “also recorded” stand apart in the source; their conditions may differ.

Data set [1] deals with S. aureus strain NARSA VRS1 (resistant to both methicillin and vancomycin). Briefly: Broth microdilution susceptibility testing, methicillin- and vancomycin-resistant S. aureus. The format is cell-based, Staphylococcus aureus. The note with it: strain NARSA VRS1, Mueller Hinton Broth, 24 (±4) hr, 35-37° C., 3.125-25 μM tested. The source says: (§1) A Gram-negative Escherichia coli strain, DH5(alpha), was purchased from Invitrogen (Cat #18265-017; Carlsbad, Calif.) and a Gram-positive Staphylococcus aureus strain, positive for catalase and coagulase, was purchased from Ward's Natural Science (Cat #85V1178; Rochester, N.Y.). S. aureus strain ATCC 33592 is a clinical isolate which is resistant to methicillin and which was obtained from the American Type Culture Collection (Manassas, Va.). S. aureus strain NARSA VRS 1 is a clinical isolate which is resistant to both methicillin and vancomycin and which was obtained from Focus Technologies, Inc. (Herndon, Va.). These bacterial strains were used to test the antibacterial activity of ebselen se-oxide. To prepare ebselen se-oxide, an adequate amount of said compound was dissolved in 0.5 mL of dimethylsulfoxide (DMSO) to give a 30.0 mM stock solution.
(§2) Note that all susceptibility assays were performed in triplicate wells using sterile flat-bottom 96-well microtiter plates. […] After 24 (±4) hr of incubation at 35-37° C., the MIC (minimum inhibitory concentration) for ebselen se-oxide was determined for each strain visually by comparing the turbidity of the triplicate treatments to that observed for drug-free growth control wells. […]

For data set [2], the system named is Staphylococcus aureus strain, positive for catalase and coagulase (Gram-positive). Briefly: Bacterial growth inhibition by light-scattering at 550 nm, Staphylococcus aureus. The data set is classed as cell-based. The settings on record: read-out: IC50, concentration required to inhibit the growth of Staphylococcus aureus to 50% of the untreated control.
Excerpt: as §1
(§3) Luria Broth (LB) was used to for the culturing of both bacterial strains. […]
(§4) Bacterial growth, in the absence or presence of ebselen se-oxide, was assessed by light-scattering at 550 nm. In separate experiments, bacterial cells of either the Staphylococcus aureus or the Escherichia coli strain were inoculated into polypropylene tubes containing 5 mL of LB medium to obtain an initial optical density at 550 nm (OD550) of ˜0.005, as determined using a spectrophotometer (UV 160U, Shimadzu Corp., Kyoto, Japan). […]

The test system of data set [3] is S. aureus strain ATCC 33592 (resistant to methicillin). The data set can be described thus: Broth microdilution susceptibility testing, methicillin-resistant S. aureus. The format is cell-based, Staphylococcus aureus. The settings on record: strain ATCC 33592, Mueller Hinton Broth, 24 (±4) hr, 35-37° C., 3.125-25 μM tested.
Excerpt: as §1, §2
A general note: Dilution methods test growth across graded concentrations, often in twofold steps.

In another data set the test system is A-431 human skin cells. The data set can be described thus: MTT viability assay in human skin cells. The data set is classed as cell-based. The settings on record: 12.5, 25 or 50 μM, 24 hr, 37° C., serum-free DMEM. The method, then:
Cells were then incubated for 24 hr at 37° C. After incubation, the MTT viability assay was performed. This assay measures the conversion of 3-[4,5-dimethylthiazol-2-yl]-2,5-diphenyl tetrazolium bromide (MTT) into a colored product in living cells. The optical density of this purple formazan product in the cell culture medium was then measured spectrophotometrically at 570 nm and cell viability was determined as described by Mosmann (15).
The MTT assay was used to determine cell viability and the LC50 value for ebselen se-oxide in these cells was evaluated.
On the technique in general: Tetrazolium dyes change colour on reduction, which living cells bring about.

Data set [4] relates to Escherichia coli strain DH5(alpha) (Gram-negative). Briefly: Bacterial growth inhibition by light-scattering at 550 nm, Escherichia coli. The format is cell-based. The settings on record: read-out: IC50 towards Escherichia coli cells (growth inhibition).
Excerpt: as §1, §3, §4

For `O=C1c2ccccc2[Se](=O)N1c1ccccc1` (stereo not drawn) [ebselen se-oxide, 2-phenyl-1,2-benzisoselenazol-3(2H)-one 1-oxide], the “MIC (lowest concentration showing 100% growth inhibition in all three wells)” value in data set [1] and in data set [3] was “low micromolar range” each time. Moreover, the IC50 in data set [2] was ~0.6 µM; in data set [4], ~17 µM. For the same compound, the “Cytotoxic effect on viability of A-431 human skin cells (MTT)” value in the data set with A-431 human skin cells is reported as “neither compound was toxic; also recorded: no toxicity”.

On to `O=c1c2ccccc2[se]n1-c1ccccc1` [ebselen, 2-phenyl-1,2-benzoisoselenazol-3(2H)-one, reference compound], for which the “Cytotoxic effect on viability of A-431 human skin cells (MTT)” value in the data set with A-431 human skin cells is given as “neither compound was toxic”.
